Test results reported in ChEMBL document CHEMBL5661943, “ASAP - In vitro antiviral effect” (2024).
Where “and” joins values, the source holds several entries; their conditions need not be identical. Equal entries are not always repeated.

Tests used:
Zika virus [1] = experiment: EC50 is reported via analysis of immunofluorescence staining. The assay has been performed by Icahn School of Medicine at Mount Sinai.; assay type: functional, organism-based, Chlorocebus sabaeus, VeroE6/TMPRSS2; details: for EC90: P-gp concentration 2 uM, P-gp inhibitor Elacidar
dengue virus type 2 [2] = experiment: Functional assay to measure dose dependent changes in antiviral-drug inhibitory efficacy against Dengue virus type 2 New Guinea C in Vero E6 miRFP670 cells (cotreated with P-gp inhibitor, CP100356). Cells are treated with antiviral candidates that are serially diluted, following infection, cells are fixed. EC50 is reported via analysis of fluorescence intensity using high-content imager. The …; assay type: organism-based, Chlorocebus sabaeus, Vero C1008; details: for EC90: P-gp concentration 500 nM, P-gp inhibitor CP100356
Zika virus [3] = experiment: Functional CPE-based assay to measure dose dependent changes in antiviral-drug inhibitory efficacy against Zika virus MR766 in Vero E6 miRFP670 cells (cotreated with P-gp inhibitor, CP100356). Cells are treated with antiviral candidates that are serially diluted. EC50 is reported via analysis of MTS assay as a readout of CPE. The assay has been performed by KU Leuven.; assay type: organism-based, Chlorocebus sabaeus, Vero C1008; details: for EC90: Baseline response 0 %, Maximum response 100 %, P-gp concentration 500 nM, P-gp inhibitor CP100356
dengue virus type 2 [4] = experiment: Functional immunofluorescence assay to measure dose dependent changes in antiviral-drug inhibitory efficacy against Dengue virus type 2 Thailand/16681/84 in Vero E6/TMPRSS2 cells (cotreated with P-gp inhibitor, Elacridar). Cells are treated with antiviral candidates that are serially diluted, following infection, cells are fixed. EC50 is reported via analysis of immunofluorescence staining. The assay has been performed by Icahn School of Medicine at Mount Sinai.; assay type: organism-based, Chlorocebus sabaeus, VeroE6/TMPRSS2; details: Dengue virus; for EC90: P-gp concentration 2 uM, P-gp inhibitor Elacidar

SMILES: COCCNC(=O)[C@H](Nc1ccc2c(c1)CNC2)c1cc(Cl)cc(C2CC2)c1
- EC90 (Zika virus [1]; Baseline response 0 %, Hill slope -0.71, Maximum measured 110.043 %, Maximum response 100 %, Minimum measured 53.247 %, R squared 0.662): > 5.56 µM
- EC50 (Zika virus [1]; Zika virus, VeroE6/TMPRSS2): > 5.56 µM
- EC90 (Zika virus [1]; Zika virus, VeroE6/TMPRSS2, Baseline response 0 %, Hill slope -0.244, Maximum measured 65.627 %, Maximum response 50 %, Minimum measured 21.531 %, R squared 0.09): > 5.56 µM
- EC50 (dengue virus type 2 [2]; Dengue virus, Vero C1008): 40.2 µM
- EC90 (dengue virus type 2 [2]; Dengue virus, Vero C1008, Maximum measured 154.141 %, Minimum measured 87.25 %): > 50 µM
- EC90 (dengue virus type 2 [2]; Dengue virus, Vero C1008, Baseline response 0 %, Hill slope -1.76, Maximum measured 106.994 %, Maximum response 100 %, Minimum measured 48.696 %, R squared 0.783): > 50 µM
- EC50 (dengue virus type 2 [2]; vero c1008): > 50 µM
- EC90 (Zika virus [3]; EC90 CI (lower) 3.438 uM, EC90 CI (upper) 13.705 uM, Hill slope 5.727, Maximum measured 103.141 %, Minimum measured 2.231 %, R squared 0.527): 6.86 µM
- EC90 (Zika virus [3]; Hill slope 2.264, Maximum measured 83.807 %, Minimum measured -2.671 %, R squared 0.978): > 50 µM
- EC50 (Zika virus [3]; vero c1008): 26 µM and 4.68 µM

SMILES: Nc1cc(Cl)cc(C(=O)Nc2ccc3c(c2)CNC3)c1N
- EC50 (dengue virus type 2 [4]; VeroE6/TMPRSS2): 41.9 µM
- EC90 (dengue virus type 2 [4]; VeroE6/TMPRSS2, Baseline response 0 %, Hill slope -3.096, Maximum measured 144.717 %, Maximum response 100 %, Minimum measured 36.673 %, R squared 0.131): > 50 µM
- EC50 (dengue virus type 2 [2]; Dengue virus, Vero C1008): > 50 µM
- EC90 (dengue virus type 2 [2]; Dengue virus, Vero C1008, Baseline response 0 %, Hill slope 0.309, Maximum measured 103.631 %, Maximum response 100 %, Minimum measured 71.641 %, R squared 0.1): > 50 µM
- EC50 (Zika virus [3]; Zika virus, Vero C1008): > 50 µM
- EC90 (Zika virus [3]; Zika virus, Vero C1008, Hill slope 0.699, Maximum measured 36.917 %, Minimum measured 3.264 %, R squared 0.811): > 50 µM

SMILES: O=C(Nc1ccc2c(c1)CNC2)c1cc(Br)cc2[nH]c([C@H]3CCOC3)nc12
- EC50 (Zika virus [1]; Zika virus, VeroE6/TMPRSS2): > 5.56 µM
- EC90 (Zika virus [1]; Zika virus, VeroE6/TMPRSS2, Maximum measured 90.854 %, Minimum measured 45.403 %): > 5.56 µM
- EC50 (dengue virus type 2 [2]; Dengue virus, Vero C1008): > 3.12 µM
- EC90 (dengue virus type 2 [2]; Dengue virus, Vero C1008, Baseline response 0 %, Hill slope -2.03, Maximum measured 96.655 %, Maximum response 100 %, Minimum measured 50.768 %, R squared 0.853): > 3.12 µM
- EC50 (Zika virus [3]; Zika virus, Vero C1008): 0.918 µM
- EC90 (Zika virus [3]; Zika virus, Vero C1008, Hill slope 2.359, Maximum measured 80.04 %, Minimum measured 15.463 %, R squared 0.714): > 1.56 µM

SMILES: N#C[C@H](Nc1ccc2c(c1)CNC2)c1cc(Cl)cc(C2CC2)c1
- EC50 (dengue virus type 2 [4]; VeroE6/TMPRSS2): > 16.7 µM
- EC90 (dengue virus type 2 [4]; VeroE6/TMPRSS2, Maximum measured 136.887 %, Minimum measured 85.602 %): > 16.7 µM
- EC50 (dengue virus type 2 [2]; Dengue virus, Vero C1008): 45.6 µM
- EC90 (dengue virus type 2 [2]; Dengue virus, Vero C1008, Baseline response 0 %, Hill slope -4.312, Maximum measured 125.602 %, Maximum response 100 %, Minimum measured 40.399 %, R squared 0.668): > 50 µM
- EC50 (Zika virus [3]; Zika virus, Vero C1008): 19.3 µM
- EC90 (Zika virus [3]; Zika virus, Vero C1008, Hill slope 4.333, Maximum measured 75.439 %, Minimum measured -2.703 %, R squared 0.979): > 25 µM

SMILES: CCc1cc(Cl)cc(C(=O)Nc2ccc3c(c2)CNC3)c1
- EC50 (dengue virus type 2 [4]; VeroE6/TMPRSS2): > 16.7 µM
- EC90 (dengue virus type 2 [4]; VeroE6/TMPRSS2, Baseline response 0 %, Hill slope -0.226, Maximum measured 109.554 %, Maximum response 100 %, Minimum measured 84.826 %, R squared 0.106): > 16.7 µM

SMILES: NCc1cccc(NC(=O)C[C@H](NC(=O)OCc2ccccc2)c2ccc(OCc3ccccc3)c(Br)c2)c1
- EC50 (dengue virus type 2 [4]; VeroE6/TMPRSS2): > 16.7 µM
- EC90 (dengue virus type 2 [4]; VeroE6/TMPRSS2, Baseline response 0 %, Hill slope 0.065, Maximum measured 60.527 %, Maximum response 100 %, Minimum measured 30.522 %, R squared 0.087): > 16.7 µM
- EC50 (Zika virus [1]; Zika virus, VeroE6/TMPRSS2): 1.7 µM
- EC90 (Zika virus [1]; Zika virus, VeroE6/TMPRSS2, Baseline response 0 %, Hill slope -0.518, Maximum measured 120.113 %, Maximum response 100 %, Minimum measured 9.459 %, R squared 0.639): > 50 µM

SMILES: O=C(Nc1ccc2c(c1)CNC2)c1cc(Cl)cc2[nH]c(-c3c[nH]c(=O)c(Br)c3)nc12
- EC50 (dengue virus type 2 [2]; Dengue virus, Vero C1008): > 50 µM
- EC90 (dengue virus type 2 [2]; Dengue virus, Vero C1008, Maximum measured 259.566 %, Minimum measured 84.768 %): > 50 µM
- EC50 (Zika virus [3]; Zika virus, Vero C1008): > 50 µM
- EC90 (Zika virus [3]; Zika virus, Vero C1008, Hill slope 0.525, Maximum measured 33.05 %, Minimum measured 2.151 %, R squared 0.865): > 50 µM
